Laboratory results reported in patent publication US20240376097A1, “BCL-2 Inhibitor” (BeiGene Ltd., priority 2020, published 2024).

Columns and labels:
[1] = biological target: Recombinant human Bcl-2 protein (Homo sapiens (Human), UniProt P10415); test: Bcl-2 TR-FRET Assay; assay type: binding; details: Bcl-2 wild type, TR-FRET; read-out: Biochemical assay (IC50, nM) Bcl-2 WT
Method in brief: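 0.05 nM Bcl-2 pre-incubated 0.5 h at room temperature with 10-point compound dilutions (top final 1, 0.1, 0.02 or 0.01 uM) in 20 mM potassium phosphate pH 7.5, 50 mM NaCl, 1 mM EDTA, 0.05% Tween-20, 0.01% BSA; FITC-Bak peptide (0.5 nM) and anti-6His Tb cryptate added, 1 h. IC50 from four-parameter logistic fit.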

[2] = biological target: recombinant human Bcl-2-G101V protein (Homo sapiens (Human), UniProt P10415, G101V); test: Bcl-2-G101V TR-FRET Assay; assay type: binding; details: Bcl-2 G101V mutant, TR-FRET; read-out: Biochemical assay (IC50, nM) Bcl-2 G101V
Method in brief: (§1)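 Percent inhibition of the Bcl-2-G101V–ligand interaction was computed from the 490 nm to 520 nm emission ratio after 337 nm excitation, over increasing compound concentrations; a four-parameter logistic fit gave IC50.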

[3] = system: recombinant human Bcl-2-G101V protein; test: Bcl-2-G101V TR-FRET Assay; assay type: binding; details: ratio of biochemical IC50 Bcl-2 G101V / Bcl-2 WT
Method in brief: as §1

[4] = system: RS4;11 (BCL-2 dependent acute lymphoblastic leukemia cell line); test: RS4;11 Cell Proliferation Assay; assay type: cell-based; details: Homo sapiens, RS4-11, RS4;11 cells, read-out: Cellular proliferation assay (IC50, nM) RS4
Method in brief: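 RS4;11 cells, 50,000 per well in RPMI-1640 with 10% FBS, treated 48 h at 37 °C with a 10-point dilution series topping at 1 μM. Viability read by CellTiter-Glo ATP luminescence; mean IC50 reported.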

[5] = system: BCL-2 G101V knock-in cell line H96 (derive from RS4;11); test: Bcl 2-G101V Knock-In RS4;11 Cell Proliferation Assay; assay type: cell-based; details: Homo sapiens, RS4;11 Bcl-2 G101V knock-in clone H96, 48 hrs, CellTiter-GLO, read-out: Cellular proliferation assay (IC50, nM) RS4
Method in brief: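 H96, a CRISPR-generated RS4;11 clone carrying BCL2-G101V knock-in (WES/RNA-seq validated), seeded 50,000 per well and exposed 48 h at 37 °C to 10-point dilutions topping at 1 or 10 μM. Viability by CellTiter-Glo luminescence; mean IC50.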

Structure (SMILES) | IC50 [1] [nM] | IC50 [2] [nM] | Ratio of Bcl-2 G101V/WT [3] | IC50 [4] [nM] | IC50 [5] [nM]
COc1ccc(CN2CCN(C3CC4(CCN(c5ccc(C(=O)NS(=O)(=O)c6ccc(NC[C@H]7CC[C@](C)(O)CC7)c([N+](=O)[O-])c6)c(Oc6cnc7[nH]ccc7c6)c5)CC4)C3)C(c3ccccc3C(C)C)C2)cc1C1CC1 (stereo partly shown) [Example 136, 2-((1H-pyrrolo[2,3-b]pyridin-5-yl)oxy)-4-(2-(4-(3-cyclopropyl-4-methoxybenzyl)-2-(2-isopropylphenyl)piperazin-1-yl)-7-azaspiro[3.5]nonan-7-yl)-N-((4-((((1r,4r)-4-hydroxy-4-methylcyclohexyl)methyl)amino)-3-nitrophenyl)sulfonyl)benzamide] | 0.75 | 2.9 | 3.8 | 0.51 | 4.6
COc1ccc(CN2CCN(C3CC4(CCN(c5ccc(C(=O)NS(=O)(=O)c6ccc(NC[C@H]7CC[C@](C)(O)CC7)c([N+](=O)[O-])c6)c(Oc6cnc7[nH]ccc7c6)c5)CC4)C3)C(c3ccccc3C(C)C)C2)cc1Cl (stereo partly shown) [Example 128, 2-((1H-pyrrolo[2,3-b]pyridin-5-yl)oxy)-4-(2-(4-(3-chloro-4-methoxybenzyl)-2-(2-isopropylphenyl)piperazin-1-yl)-7-azaspiro[3.5]nonan-7-yl)-N-((4-((((1r,4r)-4-hydroxy-4-methylcyclohexyl)methyl)amino)-3-nitrophenyl)sulfonyl)benzamide] | 0.63 | 2.6 | 4 | 0.36 | 3.94
[2H]C([2H])([2H])Oc1ccc(CN2CCN(C3CC4(CCN(c5ccc(C(=O)NS(=O)(=O)c6ccc(NC[C@H]7CC[C@](C)(O)CC7)c([N+](=O)[O-])c6)c(Oc6cnc7[nH]cc(Cl)c7c6)c5)CC4)C3)[C@H](c3ccccc3C(C)C)C2)cc1OC([2H])([2H])[2H] [Example 250, 4-(2-((R)-4-(3,4-bis(methoxy-d3)benzyl)-2-(2-isopropylphenyl)piperazin-1-yl)-7-azaspiro[3.5]nonan-7-yl)-2-((3-chloro-1H-pyrrolo[2,3-b]pyridin-5-yl)oxy)-N-((4-((((1r,4r)-4-hydroxy-4-methylcyclohexyl)methyl)amino)-3-nitrophenyl)sulfonyl)benzamide] | 0.09 | 0.52 | 5.7 | 0.16 | 1.06
COc1cc(CN2CCN(C3CC4(C3)CN(c3ccc(C(=O)NS(=O)(=O)c5ccc(NC[C@H]6CC[C@](C)(O)CC6)c([N+](=O)[O-])c5)c(Oc5cnc6[nH]ccc6c5)c3)C4)[C@H](c3ccccc3C(C)C)C2)cc2c1OC(C)(C)CC2 [Example 336, 2-((1H-pyrrolo[2,3-b]pyridin-5-yl)oxy)-N-((4-((((1r,4r)-4-hydroxy-4-methylcyclohexyl)methyl)amino)-3-nitrophenyl)sulfonyl)-4-(6-((R)-2-(2-isopropylphenyl)-4-((8-methoxy-2,2-dimethylchroman-6-yl)methyl)piperazin-1-yl)-2-azaspiro[3.3]heptan-2-yl) benzamide] | 0.09 | 0.38 | 4.2 | 0.2 | 1.1
CC(C)c1ccccc1[C@@H]1CN(CC2C3CC4CC(C3)CC2C4)CCN1C1CC2(CCN(c3ccc(C(=O)NS(=O)(=O)c4ccc(NC[C@H]5CC[C@](C)(O)CC5)c([N+](=O)[O-])c4)c(Oc4cnc5[nH]ccc5c4)c3)CC2)C1 (stereo partly drawn) [Example 259, 2-((1H-pyrrolo[2,3-b]pyridin-5-yl)oxy)-4-(2-((2R)-4-(((1R,3S,5R)-adamantan-2-yl)methyl)-2-(2-isopropylphenyl)piperazin-1-yl)-7-azaspiro[3.5]nonan-7-yl)-N-((4-((((1r,4r)-4-hydroxy-4-methylcyclohexyl)methyl)amino)-3-nitrophenyl)sulfonyl)benzamide] | 0.91 | 3.4 | 3.8 | 0.55 | 4.2
CC(C)c1ccccc1[C@H]1CN(Cc2cccc3c2OCCO3)CCN1C1CC2(C1)CN(c1ccc(C(=O)NS(=O)(=O)c3ccc(NC[C@H]4CC[C@](C)(O)CC4)c([N+](=O)[O-])c3)c(Oc3cnc4[nH]ccc4c3)c1)C2 [Example 149b, 2-((1H-pyrrolo[2,3-b]pyridin-5-yl)oxy)-4-(6-((S)-4-((2,3-dihydrobenzo[b][1,4]dioxin-5-yl)methyl)-2-(2-isopropylphenyl)piperazin-1-yl)-2-azaspiro[3.3]heptan-2-yl)-N-((4-((((1r,4r)-4-hydroxy-4-methylcyclohexyl)methyl)amino)-3-nitrophenyl)sulfonyl)benzamide] | 0.7 | 8.4 | 12 | 5.8 | 20.4
CC(C)c1ccccc1[C@@H]1CN(Cc2ccc3c(c2)OCC3)CCN1C1CC2(CCN(c3ccc(C(=O)NS(=O)(=O)c4ccc(NC[C@H]5CC[C@](C)(O)CC5)c([N+](=O)[O-])c4)c(Oc4cnc5[nH]cc(F)c5c4)c3)CC2)C1 [Example 305, 4-(2-((R)-4-((2,3-dihydrobenzofuran-6-yl)methyl)-2-(2-isopropylphenyl)piperazin-1-yl)-7-azaspiro[3.5]nonan-7-yl)-2-((3-fluoro-1H-pyrrolo[2,3-b]pyridin-5-yl)oxy)-N-((4-((((1r,4r)-4-hydroxy-4-methylcyclohexyl)methyl)amino)-3-nitrophenyl)sulfonyl) benzamide] | 0.19 | 0.6 | 3.2 | 0.32 | 1.3
CC(C)c1ccccc1C1CN(Cc2ccc(C3CC3)cc2)CCN1C1CC2(CCN(c3ccc(C(=O)NS(=O)(=O)c4ccc(NC[C@H]5CC[C@](C)(O)CC5)c([N+](=O)[O-])c4)c(Oc4cnc5[nH]cc(F)c5c4)c3)CC2)C1 (stereo partly shown) [Example 160, 4-(2-(4-(4-cyclopropylbenzyl)-2-(2-isopropylphenyl)piperazin-1-yl)-7-azaspiro[3.5]nonan-7-yl)-2-((3-fluoro-1H-pyrrolo[2,3-b]pyridin-5-yl)oxy)-N-((4-((((1r,4r)-4-hydroxy-4-methylcyclohexyl)methyl)amino)-3-nitrophenyl)sulfonyl) benzamide] | 1.2 | 6 | 5 | 0.564 | 2.87
COc1ccc(CN2CCN(C3CC4(C3)CN(c3ccc(C(=O)NS(=O)(=O)c5ccc(NCC6CCOCC6)c([N+](=O)[O-])c5)c(Oc5cnc6[nH]cc(F)c6c5)c3)C4)[C@H](c3ccccc3C(C)C)C2)cc1 [Example 183, (R)-2-((3-fluoro-1H-pyrrolo[2,3-b]pyridin-5-yl)oxy)-4-(6-(2-(2-isopropylphenyl)-4-(4-methoxybenzyl)piperazin-1-yl)-2-azaspiro[3.3]heptan-2-yl)-N-((3-nitro-4-(((tetrahydro-2H-pyran-4-yl)methyl)amino)phenyl)sulfonyl) benzamide] | 0.096 | 0.18 | 1.8 | 0.1 | 0.52
COc1ccc(CN2CCN(C3CC4(CCN(c5ccc(C(=O)NS(=O)(=O)c6ccc(NC[C@H]7CC[C@](C)(O)CC7)c([N+](=O)[O-])c6)c(Oc6cnc7[nH]ccc7c6)c5)CC4)C3)C(c3ccccc3C(C)C)C2)cc1OC1CC1 (stereo partly shown) [Example 186, 2-((1H-pyrrolo[2,3-b]pyridin-5-yl)oxy)-4-(2-(4-(3-cyclopropoxy-4-methoxybenzyl)-2-(2-isopropylphenyl)piperazin-1-yl)-7-azaspiro[3.5]nonan-7-yl)-N-((4-((((1r,4r)-4-hydroxy-4-methylcyclohexyl)methyl)amino)-3-nitrophenyl)sulfonyl)benzamide] | 0.15 | 0.64 | 4.2 | 0.53 | 2.5
COc1cc(CN2CCN(C3CC4(CCN(c5ccc(C(=O)NS(=O)(=O)c6ccc(NC[C@H]7CC[C@](C)(O)CC7)c([N+](=O)[O-])c6)c(Oc6cnc7[nH]ccc7c6)c5)CC4)C3)[C@H](c3ccccc3C(C)C)C2)ccc1C(F)(F)F [Example 277, 2-((1H-pyrrolo[2,3-b]pyridin-5-yl)oxy)-N-((4-((((1r,4r)-4-hydroxy-4-methylcyclohexyl)methyl)amino)-3-nitrophenyl)sulfonyl)-4-(2-((R)-2-(2-isopropylphenyl)-4-(3-methoxy-4-(trifluoromethyl)benzyl)piperazin-1-yl)-7azaspiro [3.5]nonan-7-yl)benzamide] | 1.4 | 3.2 | 2.2 | 0.22 | 1.9
